Measured values reported in paper PMC7085114 (Biochemistry, 2020).
Entries after “also recorded” stand apart in the source; their conditions may differ. Like-named read-outs stand apart in the source and are kept apart here. One block for each compound: values may come before it.

Tests used:
[1] = molecular target: T1, SARM1 TIR domain (Homo sapiens, UniProt Q6SZW1); experiment: Luminescent NNMT-coupled NAD+ hydrolysis assay; type: biochemical; conditions: TIR domain on affinity beads, substrate NAD^+
T1 sequence (Q6SZW1 561-724): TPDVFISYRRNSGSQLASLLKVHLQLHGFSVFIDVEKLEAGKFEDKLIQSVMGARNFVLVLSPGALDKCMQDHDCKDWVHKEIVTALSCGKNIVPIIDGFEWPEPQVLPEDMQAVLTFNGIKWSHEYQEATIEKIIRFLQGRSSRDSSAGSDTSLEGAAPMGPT

[2] = molecular target: T1, SARM1 TIR domain; experiment: Continuous fluorescent ENAD hydrolysis assay, SARM1 TIR domain in lysate; type: biochemical; conditions: for Inhibition of SARM1 (in words): 0 – 1 mM analog, ENAD 50 μM
[3] = test system: Sir2; conditions: ref [24]–[27]; cited from earlier work
[4] = molecular target: CD38; conditions: cited from earlier work
[5] = molecular target: T2, SARM1 SAM^1–2TIR domains (Homo sapiens, UniProt Q6SZW1); conditions: SAM TIR construct, substrate ENAD
T2 sequence (Q6SZW1 412-724): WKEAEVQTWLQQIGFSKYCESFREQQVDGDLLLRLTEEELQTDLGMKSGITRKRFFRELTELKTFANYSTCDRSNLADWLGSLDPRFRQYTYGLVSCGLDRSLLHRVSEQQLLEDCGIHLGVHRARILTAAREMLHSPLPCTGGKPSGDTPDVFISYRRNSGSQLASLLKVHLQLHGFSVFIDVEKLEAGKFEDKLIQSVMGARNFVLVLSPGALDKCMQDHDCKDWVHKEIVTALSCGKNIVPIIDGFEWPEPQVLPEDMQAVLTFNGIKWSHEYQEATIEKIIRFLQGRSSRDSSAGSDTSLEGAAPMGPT

[6] = molecular target: T3, full length SARM1 (Homo sapiens, UniProt Q6SZW1); conditions: Full length SARM1, substrate ENAD
T3 sequence (Q6SZW1 28-724): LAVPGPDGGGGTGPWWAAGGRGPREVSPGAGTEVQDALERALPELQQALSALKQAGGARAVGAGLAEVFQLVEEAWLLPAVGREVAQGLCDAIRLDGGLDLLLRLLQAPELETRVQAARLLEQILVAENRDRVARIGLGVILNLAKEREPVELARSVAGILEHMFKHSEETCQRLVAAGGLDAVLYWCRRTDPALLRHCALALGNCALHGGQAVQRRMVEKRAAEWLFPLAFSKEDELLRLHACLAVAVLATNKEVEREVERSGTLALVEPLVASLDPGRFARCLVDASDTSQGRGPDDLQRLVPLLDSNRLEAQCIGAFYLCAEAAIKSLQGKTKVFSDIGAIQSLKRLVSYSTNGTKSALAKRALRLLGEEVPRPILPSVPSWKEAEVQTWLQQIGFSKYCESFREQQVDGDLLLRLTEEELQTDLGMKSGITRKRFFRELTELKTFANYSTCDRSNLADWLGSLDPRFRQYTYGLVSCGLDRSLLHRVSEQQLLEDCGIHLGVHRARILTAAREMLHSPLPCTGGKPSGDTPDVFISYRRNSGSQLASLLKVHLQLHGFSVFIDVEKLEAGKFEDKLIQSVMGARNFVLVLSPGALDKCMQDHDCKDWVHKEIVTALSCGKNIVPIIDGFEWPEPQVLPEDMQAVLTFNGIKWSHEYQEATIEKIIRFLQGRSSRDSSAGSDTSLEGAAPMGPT

[7] = 2 mM metal or EDTA, 300 nM SARM1, 200 μM ENAD
[8] = 300 nM SARM1, ENAD 0 – 400 μM varied

Km [1]: 28 ± 6 µM | kcat [1]: 0.21 ± 0.03 s⁻¹
SMILES: NC(=O)c1ccc[n+]([C@@H]2O[C@H](COP(=O)([O-])OP(=O)(O)OC[C@H]3O[C@@H](n4cnc5c(N)ncnc54)[C@H](O)[C@@H]3O)[C@@H](O)[C@H]2O)c1 [NAD^+]

SMILES: [Cl-].[Cl-].[Co+2] [CoCl2]
Effect of divalent metal ions and EDTA on SARM1 catalysis [2]: only Ni^2+ and Zn^2+ inhibit SARM1

Effect of divalent metal ions and EDTA on SARM1 catalysis [2, 7]: inhibit SARM1
SMILES: [Cl-].[Cl-].[Zn+2] [Zn^2+, ZnCl2]

Effect of divalent metal ions and EDTA on SARM1 catalysis [2, 7]: lack of an effect
SMILES: O=C(O)CN(CCN(CC(=O)O)CC(=O)O)CC(=O)O [EDTA, ethylenediaminetetraacetic acid]

SMILES: O=C(O)CCP(CCC(=O)O)CCC(=O)O [TCEP, tris(2–carboxyethyl)phosphine]
Effect of reducing agents on SARM1 activity [2]: Neither DTT nor TCEP altered SARM1 activity

SMILES: O[C@@H](CS)[C@@H](O)CS (racemic) [DTT, dithiothreitrol]
Effect of reducing agents on SARM1 activity ([2]; 0 – 2 mM reducing agent, 100 μM ENAD): Neither DTT nor TCEP altered SARM1 activity

Effect of divalent metal ions and EDTA on SARM1 catalysis [2, 7]: only Ni^2+ and Zn^2+ inhibit SARM1
SMILES: [Cl][Cu][Cl] [CuCl2]

IC50 [2]: 640 ± 40 µM | Ki [2]: 700 ± 30 µM | Inhibition of SARM1 (in words) [2]: inhibit SARM1 | Pattern (mechanism) of inhibition [2, 8]: noncompetitive | Pattern (mechanism) of inhibition ([2]; 300 nM SARM1, ENAD 0 – 400 μM varied, listed as 4-Chloronicotinamide): noncompetitively
SMILES: NC(=O)c1cnccc1Cl [4–CN, 4–chloronicotinamide]

Ki [2, 8]: 90 ± 10 µM
SMILES: Nc1ncnc2c1ncn2[C@@H]1O[C@H](COP(=O)(O)OP(=O)(O)OC[C@H]2OC(O)[C@H](O)[C@@H]2O)[C@@H](O)[C@H]1O (stereo partly shown) [ADPR, ADP Ribose]
Pattern (mechanism) of inhibition [2, 8]: competitive; also recorded: competitively

Effect of divalent metal ions and EDTA on SARM1 catalysis [2, 7]: only Ni^2+ and Zn^2+ inhibit SARM1
SMILES: [Ca+2].[Cl-].[Cl-] [CaCl2]

Inhibition of SARM1 (in words) [2]: inhibit SARM1
SMILES: NC(=O)c1ccc(Cl)nc1 [6-CN, 6–chloronicotinamide]

Effect of divalent metal ions and EDTA on SARM1 catalysis [2, 7]: only Ni^2+ and Zn^2+ inhibit SARM1
SMILES: [Cl-].[Cl-].[Mg+2] [MgCl2]

SMILES: NC(=O)c1cccnc1 [nicotinamide]
Pattern of inhibition [3]: noncompetitive | Ki ([4]; ref [23]): 7100 µM | Pattern of inhibition ([4]; ref [24]–[27]): mixed inhibition

SMILES: [Cl][Cd][Cl] [CdCl2]
Effect of divalent metal ions and EDTA on SARM1 catalysis [2]: only Ni^2+ and Zn^2+ inhibit SARM1

SMILES: NC(=O)c1ccc[n+]([C@@H]2O[C@H](COP(=O)([O-])OP(=O)(O)OC[C@H]3O[C@@H](n4cnc5c4ncn4ccnc54)[C@H](O)[C@@H]3O)[C@@H](O)[C@H]2O)c1 [ENAD, Nicotinamide 1, N^6–ethenoadenine dinucleotide]
Km [2]: 35 ± 10 µM | kcat ([2]; TIR domain, substrate ENAD, fluorescent assay): 0.06 ± 0.03 s⁻¹ | Km [5]: 130 ± 20 µM | kcat [5]: 0.12 ± 0.02 s⁻¹ | Km [6]: 70 ± 20 µM | kcat [6]: 0.40 ± 0.04 s⁻¹

Effect of divalent metal ions and EDTA on SARM1 catalysis [2, 7]: only Ni^2+ and Zn^2+ inhibit SARM1
SMILES: [Cl][Mn][Cl] [MnCl2]

SMILES: [Cl][Ni][Cl] [Ni^2+, NiCl2]
Effect of divalent metal ions and EDTA on SARM1 catalysis [2]: inhibit SARM1 | IC50 ([2]; read-out: IC50 of metal ion inhibition of SARM1): 600 ± 100 µM
